One assay concerns APP/PS1 mice. The experiment in a line: Contextual fear conditioning (fear memory). The class given is in vivo. Particulars: 3 mg/kg i.p. for 3 weeks. The method, then: Fear conditioning was assessed as described in B. Gong, O. V. Vitolo, F. Trinchese, S. Liu, M. Shelanski, O. Arancio, Persistent improvement in synaptic and cognitive functions in an Alzheimer mouse model after rolipram treatment, J. Clin. Invest. 114 (2004) 1624-1634; F. Trinchese, S. Liu, F. Battaglia, S. Walter, P. M. Mathews, O. Arancio, Progressive age-related development of Alzheimer-like pathology in APP/PS1 mice, Ann. Neurol. 55 (2004) 801-814; and B. Gong, Z. Cao, P. Zheng, O. V. Vitolo, S. Liu, A. Staniszewski, D. Moolman, H. Zhang, M. Shelanski, O. Arancio, Ubiquitin hydrolase Uch-L1 rescues beta-amyloid-induced decreases in synaptic function and contextual memory, Cell 126 (2006) 775-788; each herein incorporated by reference in its entirety. […] Freezing behavior, defined as the absence of movements except for respiratory excursions, was scored using Freezeview software (Med Associates, St. Albans, Vt.). Contextual fear learning was evaluated 24 hrs after training by measuring freezing responses for 5 min in the same chamber where the mice were trained. Cued fear learning was evaluated 24 hrs after contextual testing. The mice were placed in a novel context for 2 min (pre-CS test), after which they were given a CS for 3 min (CS test), and freezing behavior was measured during the first 30 sec that mimic the CS-US conditioning and the remaining 2.5 min. […]

The next assay has as its target PDE5 (Homo sapiens (Human), UniProt O76074). The experiment in a line: PDE5 inhibition assay (BPS PDE assay kit, fluorescence polarization). It is filed as biochemical. As to conditions: Table 1; 100 nM FAM-cGMP. As for the experimental part:
Materials and Methods: PDE5 inhibition was assayed at BPS Bioscience (San Diego, Calif.) using BPS PDE assay kits (BPS Catalog number 60300, enzyme lot 090810). Test compounds were supplied as liquid solutions of 10 mM concentration in DMSO. Sildenafil, used as a standard was dissolved in DMSO. Intermediate dilutions were 10% DMSO in PDE assay buffer and tests at ranges from 0.1 to 100 nM. 0.1 ng of enzyme was used per reaction, and the substrate was 100 nM FAM-cGMP.
Assay conditions: A series of dilutions of the test compounds were prepared with 10% DMSO in assay buffer and 5 μl of the dilution was added to a 50 μl reaction so that the final concentration of DMSO is 1% in all of reactions. The enzymatic reactions were conducted at room temperature for 60 minutes in a 50 μl mixture containing PDE assay buffer, 100 nM FAM-cAMP or 100 nM FAM-cGMP, a PDE enzyme, and the test compound. After the enzymatic reaction, 100 μl of a binding solution (1:100 dilution of the binding agent with the binding agent diluent) was added to each reaction and the reaction was performed at room temperature for 60 minutes. Fluorescence intensity was measured at an excitation of 485 nm and an emission of 528 nm using a Tecan Infinite M1000 microplate reader.
Data analysis: PDE activity assays were performed in duplicate at each concentration. Fluorescence intensity is converted to fluorescence polarization using the Tecan Magellan6 software. The fluorescence polarization data were analyzed using the computer software, Graphpad Prism. The fluorescence polarization (FPt) in absence of the compound in each data set was defined as 100% activity. In the absence of PDE and the compound, the value of fluorescent polarization (FPb) in each data set was defined as 0% activity. The percent activity in the presence of the compound was calculated according to the following equation: % activity=(FP−FPb)/(FPt−FPb)×100%, where FP=the fluorescence polarization in the presence of the compound.
The values of % activity versus a series of compound concentrations were then plotted using non-linear regression analysis of Sigmoidal dose-response curve generated with the equation Y=B+(T−B)/1+10^((LogEC50-X)×Hill Slope), where Y=percent activity, B=minimum percent activity, T=maximum percent activity, X=logarithm of compound and Hill Slope=slope factor or Hill coefficient. The IC50 value was determined by the concentration causing a half-maximal percent activity.

Regarding `COc1ccc(CNc2c3c(nc4ccc(C#N)cc24)CCN(C(C)=O)C3)cc1Cl` [Compound H, 2-acetyl-10-[(3-chloro-4-methoxybenzyl)amino]-1,2,3,4-tetrahydrobenzo[b][1,6]naphthyridine-8-carbonitrile], the “effect on contextual fear memory of WT mice” value with APP/PS1 mice is reported as “no effect”. In addition, inhibition against PDE5 was half-maximal at 0.056 nM (IC50).

Source of the values: US10626113B2, “Phosphodiesterase inhibitors and uses thereof” (THE TRUSTEES OF COLUMBIA UNIVERSITY IN THE CITY OF NEW YORK, priority 2012, dated 2020).
